{"source": "patent US11485728B2", "about": "“Small molecules for the treatment of autoimmune diseases and cancer” (Athos Therapeutics, Inc., priority 2020, dated 2022)", "test": "Dosing formulation stability (physical, potency, impurity profile)", "format": "physicochemical", "details": "for Conc. (potency) / Observation (physical state): dosing formulation", "protocol": "5 mg/mL of test compound was formulated with 10% Dimethylacetamide (DMA), 30% Propylene Glycol, 35% PEG-300, 25% water (H2O). The formulation solution was stored at 4° C. and 25° C. The samples were retrieved at the following time points: 1 day, 3 days, 5 days, 7 days, 10 days and 14 days. The sample retrieved at each time point was examined visually observation of the physical state (texture and color) prior to sample preparation for analysis for physical stability. For chemical stability, the sample was diluted 1:250 dilution with acetonitrile (ACN) for potency analysis, and to 100 ug/mL final solution for impurity profile. The sample were prepared in triplication for potency analysis. The samples were then injected to HPLC for the determination of test compound concentration and its impurity profile. An Agilent 1260 Infinity II Lab LC Series HPLC system was used including 1260 Quat pump, 1260 vial autosampler, ICC column oven, and 1260 DAD WR detector. The chromatographic separation was achieved by a Phenomenex Synergi Polar RP column (150×4.6 mm, 4 μm, 80 Å). The flow rate was 1 mL/min and the detection was set at 254 nm. Injection volume was 10 uL, otherwise specified. The mobile phase consisted A, water with 0.1% trifluoroacetic acid and B, acetonitrile with 0.1% trifluoroacetic acid. […] For impurity profile, the gradient was A/B (99:1) from 0 minute; to A/B (1:99) from 0 to 15 minutes; A/B (1:99) from 15 to 18 minutes; to A/B (99:1) from 18 to 18.1 minutes; A/B (99:1) from 18.1 to 20 minutes. Data acquisition and peak integrations were obtained by OpenLAB CDS Version 2.4 (Agilent) operating with Windows (Microsoft).\nPhysical and chemical stability of dosing formulation lead to the investigation of potential impurities upon storage at various temperatures. The stability results can be used to assess the appropriate storage conditions and shelf life of a formulation, and can provide important information for drug formulation development, nonclinical, and clinical studies, especially on-going efficacy studies. The dosing formulation in these experiments contained 5 mg/mL test compound 1, with 10% Dimethylacetamide (DMA), 30% Propylene Glycol, 35% PEG-300, 25% water (H2O). The dosing formulation was stored at 4° C. and 25° C. The samples were retrieved at the following time points: 1 day and 3 days. The dosing formulation was diluted and analyzed for potency and impurity profile using reverse phase high pressure liquid chromatography. The impurity profile was described as the relative percent peak area of each peak detected.", "data": [{"smiles": "COc1cc2c(NC3CCS(=O)(=O)CC3)nc(N3CCC(F)(F)CC3)nc2cc1OCCCN1CCCC1", "note": "[Compound 1, 4-((2-(4,4-difluoropiperidin-1-yl)-6-methoxy-7-(3-(pyrrolidin-1-yl)propoxy)quinazolin-4-yl)amino)tetrahydro-2H-thiopyran 1,1-dioxide]", "values": [{"measurement": "Impurity Peak RRT 0.978, relative percent peak area", "setting": "4° C., day 0", "value": 0.14, "unit": "%"}, {"measurement": "Peak RRT 1.00 (Compound 1), relative percent peak area", "setting": "4° C., day 0", "value": 99.86, "unit": "%"}, {"measurement": "Impurity Peak RRT 0.978, relative percent peak area", "setting": "4° C., day 1", "value": 0.14, "unit": "%"}, {"measurement": "Peak RRT 1.00 (Compound 1), relative percent peak area", "setting": "4° C., day 1", "value": 99.86, "unit": "%"}, {"measurement": "Impurity Peak RRT 0.978, relative percent peak area", "setting": "4° C., day 3", "value": 0.31, "unit": "%"}, {"measurement": "Peak RRT 1.00 (Compound 1), relative percent peak area", "setting": "4° C., day 3", "value": 99.69, "unit": "%"}, {"measurement": "Impurity Peak RRT 0.978, relative percent peak area", "setting": "25° C., day 0", "value": 0.14, "unit": "%"}, {"measurement": "Peak RRT 1.00 (Compound 1), relative percent peak area", "setting": "25° C., day 0", "value": 99.86, "unit": "%"}, {"measurement": "Impurity Peak RRT 0.978, relative percent peak area", "setting": "25° C., day 1", "value": 0.13, "unit": "%"}, {"measurement": "Peak RRT 1.00 (Compound 1), relative percent peak area", "setting": "25° C., day 1", "value": 99.87, "unit": "%"}, {"measurement": "Impurity Peak RRT 0.978, relative percent peak area", "setting": "25° C., day 3", "value": 0.30, "unit": "%"}, {"measurement": "Peak RRT 1.00 (Compound 1), relative percent peak area", "setting": "25° C., day 3", "value": 99.70, "unit": "%"}, {"measurement": "Conc. (potency)", "setting": "4° C., day 0", "value": 5560, "unit": "µg/mL"}, {"measurement": "Observation (physical state)", "setting": "4° C., day 0", "value": "Clear solution"}, {"measurement": "Conc. (potency)", "setting": "4° C., day 1", "value": 5570, "unit": "µg/mL"}, {"measurement": "Observation (physical state)", "setting": "4° C., day 1", "value": "Clear solution"}, {"measurement": "Conc. (potency)", "setting": "4° C., day 3", "value": 5650, "unit": "µg/mL"}, {"measurement": "Observation (physical state)", "setting": "4° C., day 3", "value": "Clear solution"}, {"measurement": "Conc. (potency)", "setting": "25° C., day 0", "value": 5560, "unit": "µg/mL"}, {"measurement": "Observation (physical state)", "setting": "25° C., day 0", "value": "Clear solution"}, {"measurement": "Conc. (potency)", "setting": "25° C., day 1", "value": 5470, "unit": "µg/mL"}, {"measurement": "Observation (physical state)", "setting": "25° C., day 1", "value": "Clear solution"}, {"measurement": "Conc. (potency)", "setting": "25° C., day 3", "value": 6090, "unit": "µg/mL"}, {"measurement": "Observation (physical state)", "setting": "25° C., day 3", "value": "Clear solution"}]}]}
